Test results from patent US10676710B2, “Cell culture compositions with antioxidants and methods for polypeptide production” (Genentech, Inc., priority 2013, dated 2020).

Assays:
IgG1 monoclonal antibody = assay: Antioxidant incubation screening: color intensity of antibody composition after incubation in Media 1/Media 2 mixture; conditions: 1X test concentration in Media 1 + Media 2 mixture, 2 g/L IgG1 mAb, 5 days 37° C.; normalized to positive control (0% change)
Description: For antioxidant screening, a total volume of 40 ml media was prepared by mixing 1 part basal Media 1 and 0.3 part feed Media 2 to mirror a representative ratio of media used in cell culture conditions (Table 5). […] The samples were incubated at 37° C. with shaking at 250 rpm for a five day incubation period.
After incubation, the monoclonal antibody was purified using protein A affinity chromatography. The pool was concentrated to 150 g/L using Amicon Centricon centrifugal filter devices (Millipore Corporation, Billerica, Mass.). Color intensity of the concentrated antibody composition was measured in the concentrated protein A pool using an assay wherein higher numerical values indicate higher color intensity and lower numerical values indicate lower color intensity. The numerical results were normalized to the positive control, where the value for the positive control was set at 0% change in color intensity.

[1] = test system: antibody producing CHO cells; assay: 2-liter stirred bioreactor fed-batch cell culture in basal Media 1/feed Media 2 supplemented with hypotaurine or analog; format: cell-based, Chinese hamster; conditions: for cell growth as measured by VCC: 12.95 mM hypotaurine or 10 mM carboxymethylcysteine in Media 1, 2 L bioreactor (FIG. 7A); for cell viability: 12.95 mM hypotaurine or 10 mM carboxymethylcysteine in Media 1, 2 L bioreactor (FIG. 7B); for antibody production (antibody titer by HPLC): 12.95 mM hypotaurine or 10 mM carboxymethylcysteine in Media 1, 2 L bioreactor (FIG. 8); for color intensity reduction of isolated antibody composition, specific color assay / color intensity reduction of isolated antibody composition, second color assay: 12.95 mM hypotaurine or 10 mM carboxymethylcysteine in Media 1, protein A pool 150 g/L; for color intensity reduction of isolated antibody composition, specific color assay: vs positive control (FIG. 9A); for color intensity reduction of isolated antibody composition, second color assay: vs positive control (FIG. 9B)
Description: Antibody producing CHO cells were inoculated at approximately 1.0×10^6 cells/mL in 2-liter stirred bioreactors (Applikon, Foster City, Calif.) containing 1 L of basal Media 1 supplemented with 12.95 mM hypotaurine or 10 mM carboxymethylcysteine (CAS number 638-23-3). Cells were cultured in fed-batch mode with addition of 100 mL of feed Media 2 per liter of cell culture fluid at days 3, 6 and 9 for initiation of the production phase. A positive control was included by culturing cells in Media 1 and 2 without hypotaurine supplementation. The concentration of glucose was analyzed every day and if the glucose concentration fell below 2 g/L, it was replenished from a […] stock solution of glucose for prevention of glucose depletion. Reactors were equipped with calibrated dissolved oxygen, pH and temperature probes. Dissolved oxygen was controlled on-line through sparging with air and/or oxygen. pH was controlled through addition of CO2 or Na2CO3 and antifoam was added to the cultures as needed. The cell cultures were maintained at pH 7.0 and a temperature of 37° C. from days 0 through 3, and then at 35° C. after day 3. The cell cultures were agitated at 275 rpm and the dissolved oxygen level was at 30% of air saturation. Osmolality was monitored using an osmometer from Advanced Instruments (Norwood, Mass.). Offline pH and metabolite concentrations were also determined daily using a Nova Bioprofile 400 (Nova Biomedical, Waltham, Mass.). VCC and cell viability was measured daily using a ViCell® automated cell counter (Beckman Coulter, Fullerton, Calif.). The cell culture fluid was collected daily by centrifuging 1 mL of cell culture fluid for determination of antibody titer using high performance liquid chromatography. At the end of the cell culture duration on day 14, when the amount of protein in the culture was approximately 2-10 g/L, the cell culture fluid from all samples was harvested by centrifugation. The monoclonal antibody in the harvested cell culture fluid was purified using protein A affinity chromatography. The protein A pool was concentrated to 150 g/L using Amicon Centricon centrifugal filter devices (Millipore Corporation, Billerica, Mass.). Color intensity of the concentrated antibody composition was measured in the concentrated protein A pool using two different assays wherein higher numerical values indicated higher color intensity and lower numerical values indicated lower color intensity. […] This color intensity reduction was confirmed by using a second color assay which detected an approximate 17% and 13% color intensity reduction in antibody compositions isolated from cell cultured in media supplemented with hypotaurine and carboxymethylcysteine, respectively (FIG. 9B).

[2] = listed as carboxy methyl cysteine

Compound | reduction of color intensity of the antibody-containing compositions (IgG1 monoclonal antibody) | cell growth as measured by VCC [1] | cell growth as measured by VCC [1, 2] | cell viability [1] | cell viability [1, 2] | antibody production (antibody titer by HPLC) [1] | antibody production (antibody titer by HPLC) [1, 2] | color intensity reduction of isolated antibody composition, specific color assay [1] | color intensity reduction of isolated antibody composition, second color assay [1]
NCCS(=O)(=O)O [Taurine, 2-aminoethane-1-sulfonic acid] | approximately 5% | – | – | – | – | – | – | – | –
N[C@@H](CSCC(=O)O)C(=O)O [carboxymethylcysteine, (2R)-2-amino-3-[(carboxymethyl)sulfanyl]propanoic acid] | – | comparable | did not compromise | comparable | did not compromise | comparable levels of antibody titers | did not significantly reduce | 13% | ~13%
NCCS(=O)O [hypotaurine, 2-aminoethane-1-sulfinate] | – | – | – | – | – | – | – | 27% | ~17%
